Measurements taken from article PMC6913630, “Novel benzofuran-based sulphonamides as selective carbonic anhydrases IX and XII inhibitors: synthesis and in vitro biological evaluation” (Journal of Enzyme Inhibition and Medicinal Chemistry, 2019).

What was measured:
Assay in all cases: stopped-flow CO2 hydration
Format in all cases: biochemical
hCA I = target: T1, hCA I (Homo sapiens, UniProt P00915)
T1 construct: gene CA1; not described; cytosolic isoform
From the text: stopped-flow CO2 hydration on hCA I

hCA XII = target: T2, hCA XII (Homo sapiens, UniProt O43570)
T2 construct: gene CA12; not described; transmembrane tumour-associated isoform
From the text: stopped-flow CO2 hydration on hCA XII

hCA II = target: T3, hCA II (Homo sapiens, UniProt P00918)
T3 construct: gene CA2; not described; cytosolic isoform
From the text: stopped-flow CO2 hydration on hCA II

hCA IX = target: T4, hCA IX (Homo sapiens, UniProt Q16790)
T4 construct: gene CA9; not described; transmembrane tumour-associated isoform
From the text: stopped-flow CO2 hydration on hCA IX

T1 sequence (P00915 2-261): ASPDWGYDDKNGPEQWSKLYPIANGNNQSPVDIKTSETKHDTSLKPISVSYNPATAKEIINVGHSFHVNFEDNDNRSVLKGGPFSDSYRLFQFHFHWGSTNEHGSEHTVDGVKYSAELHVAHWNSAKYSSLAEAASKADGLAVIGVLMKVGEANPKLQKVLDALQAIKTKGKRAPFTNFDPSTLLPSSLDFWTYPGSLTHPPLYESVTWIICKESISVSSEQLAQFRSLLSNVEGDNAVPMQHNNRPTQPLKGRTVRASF
T2 sequence (O43570 25-354): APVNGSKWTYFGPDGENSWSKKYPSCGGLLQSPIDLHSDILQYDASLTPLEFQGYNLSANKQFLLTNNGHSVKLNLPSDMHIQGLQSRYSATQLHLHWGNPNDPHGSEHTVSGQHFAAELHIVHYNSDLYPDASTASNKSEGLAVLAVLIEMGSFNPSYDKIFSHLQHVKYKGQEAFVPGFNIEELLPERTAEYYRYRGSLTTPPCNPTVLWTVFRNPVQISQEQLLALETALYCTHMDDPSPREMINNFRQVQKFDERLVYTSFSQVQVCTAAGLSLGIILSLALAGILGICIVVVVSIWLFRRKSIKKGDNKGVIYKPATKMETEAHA

Row | Structure (SMILES) | Ki (hCA I) [nM] | Ki (hCA XII) [nM] | Ki (hCA II) [nM] | Ki (hCA IX) [nM]
1 | CC(=NNC(=O)c1ccc(S(N)(=O)=O)cc1)c1cc2ccccc2o1 [5a, 4–(2-(1-(Benzofuran-2-yl)ethylidene)hydrazine-1-carbonyl)benzenesulfonamide] | 37.4 | 10.1 | 33.6 | 60.4
2 | CC(=NNc1ccc(S(N)(=O)=O)cc1)c1cc2ccccc2o1 [4a, 4–(2-(1-(Benzofuran-2-yl)ethylidene)hydrazineyl)benzenesulfonamide] | 163 | 26.9 | 12.3 | 33.3
3 | CC(=NNc1ccc(S(N)(=O)=O)cc1)c1cc2cc(Br)ccc2o1 [4b, 4–(2-(1–(5-Bromobenzofuran-2-yl)ethylidene)hydrazineyl)benzenesulfonamide] | 92.7 | 38.8 | 73.5 | 48.4
4 | CC(=NNC(=O)c1ccc(S(N)(=O)=O)cc1)c1cc2cc(Br)ccc2o1 [5b, 4–(2-(1–(5-Bromobenzofuran-2-yl)ethylidene)hydrazine-1-carbonyl)benzenesulfonamide] | 63.9 | 32.5 | 44.2 | 27.7

Now from value to molecule:

Row | Ki (hCA I) [nM] | Ki (hCA XII) [nM] | Ki (hCA II) [nM] | Ki (hCA IX) [nM] | Structure (SMILES)
5 | 2160 | 33.4 | 888 | 44.6 | NS(=O)(=O)c1ccc(NN=C(CS(=O)(=O)c2ccccc2)c2cc3cc(Br)ccc3o2)cc1 [9b, 4–(2-(1–(5-Bromobenzofuran-2-yl)-2-(phenylsulfonyl)ethylidene)hydrazineyl)benzenesulfonamide]
6 | 2500 | 16.7 | 571 | 10 | Cc1ccc(S(=O)(=O)CC(=NNc2ccc(S(N)(=O)=O)cc2)c2cc3cc(Br)ccc3o2)cc1 [9c, 4–(2-(1–(5-Bromobenzofuran-2-yl)-2-tosylethylidene)hydrazineyl)benzenesulfonamide]
7 | 3920 | 38.9 | 229 | 51.1 | Cc1ccc(S(=O)(=O)CC(=NNC(=O)c2ccc(S(N)(=O)=O)cc2)c2cc3ccccc3o2)cc1 [10b, 4–(2-(1-(Benzofuran-2-yl)-2-tosylethylidene)hydrazine-1-carbonyl)benzenesulfonamide]
8 | 828 | 27.5 | 727 | 97.5 | Cc1ccc(S(=O)(=O)CC(=NNC(=O)c2ccc(S(N)(=O)=O)cc2)c2cc3cc(Br)ccc3o2)cc1 [10d, 4–(2-(1–(5-Bromobenzofuran-2-yl)-2-tosylethylidene)hydrazine-1-carbonyl)benzenesulfonamide]
9 | 4620 | 71.8 | 354 | 76.6 | NS(=O)(=O)c1ccc(C(=O)NN=C(CS(=O)(=O)c2ccccc2)c2cc3ccccc3o2)cc1 [10a, 4–(2-(1-(Benzofuran-2-yl)-2-(phenylsulfonyl)ethylidene)hydrazine-1-carbonyl)benzenesulfonamide]
10 | 1820 | 66.8 | 439 | 85.4 | NS(=O)(=O)c1ccc(C(=O)NN=C(CS(=O)(=O)c2ccccc2)c2cc3cc(Br)ccc3o2)cc1 [10c, 4–(2-(1–(5-Bromobenzofuran-2-yl)-2-(phenylsulfonyl)ethylidene)hydrazine-1-carbonyl)benzenesulfonamide]
11 | 1290 | 49.7 | 644 | 32.8 | Cc1ccc(S(=O)(=O)CC(=NNc2ccc(S(N)(=O)=O)cc2)c2cc3ccccc3o2)cc1 [9a, 4–(2-(1-(Benzofuran-2-yl)-2-tosylethylidene)hydrazineyl)benzenesulfonamide]
